Measured values from patent US20110224170A1, “Pyranopyranone derivatives as antimicrobial agents” (BASF SE, priority 2010, published 2011).
In brackets after ≈: the same amount, converted by molar mass. Values belong to the molecule of their own block, whether it stands above or below them.

Tests used:
[1] = test system: Candida albicans ATCC 10231; experiment: Suspension test for fungicidal activity (modified EN 1275), residual cell count; assay type: cell-based; conditions: C. albicans
Procedure: The fungicidal activity of the compounds of the present invention is measured in a suspension test according to trivial modifications of the European Standard method EN 1275. The pyrano pyranone derivatives are dissolved in ethanol or DMSO resulting in 1% stock solutions of the compounds. The cell density of Candida albicans ATCC 10231 used as inoculum for the suspension test was 2.4×10^8 cfu/ml and of A. niger ATCC 6275 3.8×10^8 cfu/ml. For the suspension tests, an appropriate concentration of the test compound is mixed with a Candida albicans suspension resulting in a final cell count of about 10^5 cfu/ml. These test mixtures are incubated at room temperature (22° C.+/−2° C.) and aliquots of 1 ml test mixture containing Candida albicans were taken after set contact times for determination of the residual cell count. For inactivation of the antimicrobial compounds, the 1 ml aliquots are diluted in 1:10 steps in a solution with 10% Tween, 3% lecithin, 0.1% histidine and 0.5% sodium thiosulfate.

[2] = test system: gram positive and gram negative bacteria; experiment: Suspension test for bactericidal activity (modified EN 1040), residual cell count; assay type: cell-based
Procedure: The bactericidal activity of the compounds of the present invention is measured in a suspension test according to trivial modifications of the European Standard method EN 1040. Substances listed in Table 1 are tested against gram positive and gram negative bacteria, yeasts and moulds. A selection of the results is shown in the following. The pyrano pyranone derivatives are dissolved in ethanol or DMSO resulting in 1% stock solutions of the compounds. The cell densities of the bacterial suspensions used as inoculums for the suspension test are as follows (cfu=colony forming units): [table] For the suspension tests, an appropriate concentration of the test compound is mixed with a bacterial suspension resulting in a final cell count in the mixture of about 10^5 cfu/ml. These test mixtures are incubated at room temperature (22° C.+/−2° C.) and aliquots of 1 ml test mixture containing the test bacteria were taken after set contact times for determination of the residual cell count of test bacteria. For inactivation of the antimicrobial compounds, the 1 ml aliquots are diluted in 1:10 steps in a solution with 10% Tween, 3% lecithin, 0.1% histidine and 0.5% sodium thiosulfate.

[3] = test system: A. niger ATCC 6275; experiment: Suspension test for fungicidal activity (modified EN 1275), residual cell count; assay type: cell-based, Aspergillus niger
Procedure: The fungicidal activity of the compounds of the present invention is measured in a suspension test according to trivial modifications of the European Standard method EN 1275. The pyrano pyranone derivatives are dissolved in ethanol or DMSO resulting in 1% stock solutions of the compounds. The cell density of Candida albicans ATCC 10231 used as inoculum for the suspension test was 2.4×10^8 cfu/ml and of A. niger ATCC 6275 3.8×10^8 cfu/ml. Aliquots of 1 ml were taken of the A. niger containing test mixtures after set contact times for determination of the residual cell count. For inactivation of the antimicrobial compounds, the 1 ml aliquots were diluted in 1:10 steps in a solution of the following composition: [table]

[4] = test system: Malassezia furfur DSM 6171, CIP 1636-86; experiment: Agar incorporation test, minimum inhibitory concentration (MIC); assay type: cell-based; conditions: M. fufur
Procedure: For determination of the microbistatic activity, the Minimum Inhibitory Concentrations (MIC) of the test compounds is determined.
The pyrano pyranone derivatives are also tested in an agar incorporation test in order to determine their minimum inhibitory concentrations (MIC) against various tests organisms. A selection of the results is shown in the following.
For this compound, a 1% stock solutions i9s prepared in ethanol.
A dilution series of the test compound in 15 ml still liquid agar media are prepared with 400 ppm, 200 ppm, 100 ppm, 50 ppm, 25 ppm, 12.5 ppm, 6.25 ppm, 3.125 ppm and 1.56 pmm of active.
The media used for the agar plates are Müller-Hinton (Merck) for the determination of the MIC against bacteria and C. albicans and Sabouraud Agar (Merck) for the determination of the MIC against A. niger. For the determination of the MIC against Malassezia furfur DSM 6171, CIP 1636-86 Medium 472 (DSMZ—Deutsche Sammlung von Mikroorganismen and Zellkulturen GmbH) was used.
After solidification of the agar, all agar plates containing the test compounds were stored over night in the laboratory (at about 22° C.) for drying. […]
10 μl of these cell dilutions are then dotted onto the surface of the agar media. […] (for Aspergillus niger), 4 days at 30° C. and then the highest dilution of the test compound at which no more growth was observed (corresponds to the MIC) is determined. […]

[5] = P. aeruginosa, contact time 24 h

SMILES: CC1=Cc2c(cc(C)oc2=O)OC1C (stereo not shown) [P-1]
log reduction after set contact time ([1]; contact time 24 h): >3 | residual cell count (cfu/ml) after set contact time ([1]; contact time 24 h): <100 cfu/ml | log reduction after set contact time ([2]; E. coli, contact time 24 h): >3 | residual cell count (cfu/ml) after set contact time ([2]; E. coli, contact time 24 h): <100 cfu/ml | log reduction after set contact time [2, 5]: >3 | residual cell count (cfu/ml) after set contact time [2, 5]: <100 cfu/ml | log reduction after set contact time ([2]; S. aureus, contact time 24 h): >3 | residual cell count (cfu/ml) after set contact time ([2]; S. aureus, contact time 24 h): <100 cfu/ml | log reduction after set contact time ([3]; contact time 24 h): 2.2 | residual cell count (cfu/ml) after set contact time ([3]; contact time 24 h): 1.2 × 10^3 cfu/ml

SMILES: CC(C)=CCCC1(C)C=Cc2c(cc(C)oc2=O)O1 (stereo not shown) [P-3]
log reduction after set contact time ([1]; contact time 24 h): >3 | residual cell count (cfu/ml) after set contact time ([1]; contact time 24 h): <100 cfu/ml | log reduction after set contact time ([2]; E. coli, contact time 24 h): >3 | residual cell count (cfu/ml) after set contact time ([2]; E. coli, contact time 24 h): <100 cfu/ml | log reduction after set contact time [2, 5]: >3 | residual cell count (cfu/ml) after set contact time [2, 5]: <100 cfu/ml | log reduction after set contact time ([2]; S. aureus, contact time 24 h): >3 | residual cell count (cfu/ml) after set contact time ([2]; S. aureus, contact time 24 h): <100 cfu/ml | log reduction after set contact time ([3]; contact time 7 d): 2.2 | residual cell count (cfu/ml) after set contact time ([3]; contact time 7 d): 1.2 × 10^3 cfu/ml

SMILES: Cc1cc2c(c(=O)o1)C=CC(C)(C)O2 [P-4]
log reduction after set contact time ([1]; contact time 24 h): >3 | residual cell count (cfu/ml) after set contact time ([1]; contact time 24 h): <100 cfu/ml | log reduction after set contact time ([2]; E. coli, contact time 24 h): >3 | residual cell count (cfu/ml) after set contact time ([2]; E. coli, contact time 24 h): <100 cfu/ml | log reduction after set contact time [2, 5]: >3 | residual cell count (cfu/ml) after set contact time [2, 5]: <100 cfu/ml | log reduction after set contact time ([2]; S. aureus, contact time 24 h): >3 | residual cell count (cfu/ml) after set contact time ([2]; S. aureus, contact time 24 h): <100 cfu/ml | log reduction after set contact time ([3]; contact time 24 h): >3 | residual cell count (cfu/ml) after set contact time ([3]; contact time 24 h): <10 cfu/ml

MIC [4]: 50 µg/mL (≈ 205 µM)
SMILES: CC1=Cc2c(cc(C)oc2=O)OC1c1ccco1 (stereo not shown) [P-5]
log reduction after set contact time ([1]; contact time 7 d): >3 | residual cell count (cfu/ml) after set contact time ([1]; contact time 7 d): <100 cfu/ml | log reduction after set contact time ([2]; E. coli, contact time 24 h): >3 | residual cell count (cfu/ml) after set contact time ([2]; E. coli, contact time 24 h): 4.0 × 10^2 cfu/ml | log reduction after set contact time [2, 5]: >3 | residual cell count (cfu/ml) after set contact time [2, 5]: <100 cfu/ml | log reduction after set contact time ([2]; S. aureus, contact time 7 d): >3 | residual cell count (cfu/ml) after set contact time ([2]; S. aureus, contact time 7 d): <100 cfu/ml

SMILES: CCCC1C=Cc2c(cc(C)oc2=O)O1 (stereo not shown) [P-6]
log reduction after set contact time ([1]; contact time 24 h): >3 | residual cell count (cfu/ml) after set contact time ([1]; contact time 24 h): <100 cfu/ml | log reduction after set contact time ([2]; E. coli, contact time 24 h): >3 | residual cell count (cfu/ml) after set contact time ([2]; E. coli, contact time 24 h): <100 cfu/ml | log reduction after set contact time [2, 5]: >3 | residual cell count (cfu/ml) after set contact time [2, 5]: <100 cfu/ml | log reduction after set contact time ([2]; S. aureus, contact time 24 h): >3 | residual cell count (cfu/ml) after set contact time ([2]; S. aureus, contact time 24 h): <100 cfu/ml | log reduction after set contact time ([3]; contact time 24 h): >3 | residual cell count (cfu/ml) after set contact time ([3]; contact time 24 h): <10 cfu/ml
